The results in this text go back to article PMC4461206 (Acta Crystallographica Section D: Biological Crystallography, 2015).

Data set [1] deals with T1, AcdDPN7 (3-sulfinopropionyl-coenzyme A desulfinase) (Advenella mimigardefordensis, UniProt K4L7X3).
T1 construct: gene acd; His6-tagged, pET-23a::acdDPN7, E. coli BL21(DE3) pLysS; homotetramer 150-200 kDa, one FAD per subunit; residues 2-392 superimposed in the structure
Nature of the data set: DTNB sulfite-release assay, […] nm. The data set is classed as biochemical. The settings on record: 50 mM Tris-HCl pH 7.4, 30 C, 0.2 mM DTNB, 0.1 mM 3SP-CoA, with or without O2.

Data set [2] addresses T1, AcdDPN7 (3-sulfinopropionyl-coenzyme A desulfinase). Description: X-ray crystal structure, […] A. The data set is classed as binding. Conditions: co-crystallized and soaked with succinyl-CoA, which was hydrolysed; only CoA seen in the active site (monomers A, B, D, E, F), occupancy 0.43-0.59; pH 6.5.
Data set [3] shares this target. Nature of the data set: X-ray crystal structure, […] A. The data set is classed as binding. Conditions: noncovalent, one per subunit, site shared by two monomers; pH 6.5.
Data set [4] deals with the molecule itself. Description: crystal structure; apo enzyme at 1.89 Å (two monomers in the asymmetric unit) and complex with CoA at 2.30 Å (six monomers, three dimers); 0.1 M Bis-tris pH 6.5, PEG 3350; 100 K.
Data set [5] concerns the molecule itself. Description: SEC; wild-type Acd_(DPN7) and Acd_(DPN7_R84K) run side by side; conditions not told for this run. In general terms: Size exclusion chromatography separates by hydrodynamic size, large species first.

Where a chain is given by its changes, count along the chain named.

In the case of `CC(C)(COP(=O)(O)OP(=O)(O)OC[C@H]1O[C@@H](n2cnc3c(N)ncnc32)[C@H](O)[C@@H]1OP(=O)(O)O)[C@@H](O)C(=O)NCCC(=O)NCCSC(=O)CCS(=O)O` [3SP-CoA], the “DTNB sulfite-release assay, 412 nm” value in data set [1] is recorded as “AcdDPN7 showed no significant difference in reaction velocity in the presence or absence of O2”. `CC(C)(COP(=O)(O)OP(=O)(O)OC[C@H]1O[C@@H](n2cnc3c(N)ncnc32)[C@H](O)[C@@H]1OP(=O)(O)O)[C@@H](O)C(=O)NCCC(=O)NCCS` [CoA]: the “X-ray crystal structure, 2.30 A” value in data set [2] was “In the active sites of AcdDPN7 monomers A, B, D, E and F only the CoA group”. For `Cc1cc2nc3c(=O)[nH]c(=O)nc-3n(C[C@H](O)[C@H](O)[C@H](O)COP(=O)(O)OP(=O)(O)OC[C@H]3O[C@@H](n4cnc5c(N)ncnc54)[C@H](O)[C@@H]3O)c2cc1C` [FAD], the “X-ray crystal structure, 1.89 A” value in data set [3] was “AcdDPN7 is a tetramer and each monomer has one FAD noncovalently bound to the polypeptide”.

B1: 3-Sulfinopropionyl-coenzyme A (3SP-CoA) desulfinase from Advenella mimigardefordensis DPN7T (enzyme)
chain: MYELTPEQRTLQTQARELAQSVFASTAVQTDLTEQYPWDNVAQLRDAGFMGMMLPTSVGGRGLSTLDTVIVIEEMAKACATMGRITVDSNLGAIGAITKYGSEEQIKLAADLVLAGDKPAICISEPNAGSAASEMTTRADKNGDHYILNGEKYWITGGGVSKLHLIFARVFDDGVEQGIGAFITVLDDHGPEGLKVGRRLYAMGVRGIPETHLEFHDLKIHKSMMITFPDGLKRGFAALMSAYNAQRVGAGAVALGIAQCAFEEGVAYLKRREQFGRPLAEFQGLQWMVADMSVQLEAARLMLRSAAVSGETFPDINKAAQAKIFAAETANKVTNDALQFFGSSGYGRHNPMERHVRDARMFTIAGGTAQILRTQVASKILDMKLPQTRDGYLKAAQNSKR
Regarding B1, in data set [4], the stoichiometry N (usually the number of molecules, sites or subunits per partner or assembly) stood at 4.

B2: Acd_(DPN7_R84K) (enzyme)
chain: B1 chain with R84K
In the case of B2, in data set [5], the “stoichiometry N” value amounted to 4.
